Reference: patent US11026936B2, “Piperidinyl-propanone derivatives” (Merck Patent GmbH, priority 2016, dated 2021)
pIC50, pKd: −log10 of the molar value.

Legend:
PDHK2 = PDHK2 (Homo sapiens (Human), UniProt Q15119); test: Biochemical activity testing of PDHK2: PDC inactivation assay; conditions: human rec PDHK2, PDC from porcine heart, ATP 5 μM; read-out: IC50 PDHK2 (enzyme assay)
From the text: Biochemical Activity Testing of PDHK2: PDC Inactivation Assay
The biochemical activity assay for PDHK2 is based on the inactivation of PDC through phosphorylation by PDHK2. The assay is run in two steps: the enzymatic PDHK2 reaction in which isolated PDC is phosphorylated by PDHK2 with ATP as co-substrate and the PDC activity assay in which pyruvate and NAD are converted to acetyl-CoA and NADH. The PDC activity correlates to the increase in NADH and thereby is detectable directly via the increasing fluorescence signal (Exc 340 nm, Em 450 nm). Inhibition of PDHK2 results in a lower phosphorylation status and thereby a less decrease in activity of PDC and a stronger increase in NADH fluorescence signal.
The PDC inactivation assay is performed in Greiner 384-well microtiter plates and is used for high throughput screen. 4 μl of PDHK2 (human, rec, Carna Bioscience, 10 ng/μl-137 nM final concentration) and PDC (isolated from porcine heart, Sigma-Aldrich, 20 mU/ml final concentration) are incubated in the absence or presence of the test compound (10 dilution concentrations) for 30 min at room temperature in kinase buffer (15 mM potassium phosphate buffer, pH 7.0, 60 mM KCl, 1.5 mM DTT, 2.5 mM MgCl2, 0.0125% (w/v) BSA, 0.125% Pluronic F-68). The kinase reaction is started by the addition of 4 μl ATP substrate solution (fc 5 μM in kinase buffer). After 30 min incubation at 37° C. 40 μl of PDC reaction solution (100 mM Tris/HCl, pH 7.8, 0.5 mM EDTA, 1 mM MgCl2, 50 mM NaF, 0.25 mM Coenzyme A, 5 mM pyruvate, 1 mM NAD, 5 mM DTT, 1 mM thiamine pyrophosphate) is added. The first fluorescence measurement is performed on a Perkin Elmer Envision (Exc 340 nm, Em 450 nm). The reaction is incubated for 45 min at room temperature. Afterwards a second fluorescence measurement is performed and the PDC activity is calculated by the difference between both measurements. As full value for the PDHK2 assay the inhibitor-free PDHK2 reaction is used. The pharmacological zero value used is DCA (Sigma-Aldrich) in a final concentration of 3 mM. The inhibitory values (IC50) were determined using either the program Symyx Assay Explorer® or Condosseo® from GeneData.

human PDHK2 (12-407) = human PDHK2 (12-407) (Homo sapiens (Human), UniProt Q15119); test: Isothermal titration calorimetry (ITC) binding; conditions: 30° C., pH 7.5
Description: Isothermal Titration Calorimetry
ITC measurements were performed with a VP-ITC micro calorimeter (Microcal, LLC/GE Healthcare Bio-Sciences AB, Uppsala, Sweden). In general titrations were performed by titrating the protein (50 μM) to the test compound (5 μM) in 12 μl injections. All binding experiments were carried out at 30° C. In general the test compounds were diluted form DMSO stock solutions into the measurement buffer with a maximum final concentration of 1% DMSO. The measurement buffer was 20 mM HEPES, 135 mM KCl, 1 mM TCEP, 2 mM MgCl2, 15 mM NaH2PO4, pH 7.5. The human PDHK2 (12-407) was produced in E. coli as his-tagged protein and purified by affinity chromatography. The tag was removed by side specific proteolysis. Before titration the protein buffer was changed to the measurement buffer containing the same DMSO concentration as the test compound dilution. ITC data analysis was performed using Origin 7 calorimetry software from the same supplier. For most measurements a binding model of one binding site was assumed. According to the applied mathematical model it is possible to calculate the binding constant (KA), the observed binding enthalpy (ΔH^obs) as well as the stoichiometry (N) of the formed complex. Preceding analysis the raw data was corrected for the heats of dilution by extrapolating from the saturation value from the end of titration. In order to allow for direct comparison between the respective experimental series and protein preparations the protein concentration was corrected by referencing titrations to a well behaved standard inhibitor. The apparent stoichiometry values defined the fraction of binding competent protein and compensated for relative errors in protein concentration measurements. This corrected protein concentration was used to set up ITC experiment series with test compounds. Any deviations from ideal 1:1 stoichiometry observed here were attributed to errors in compound concentration. This nominal compound concentration was corrected as well to achieve 1:1 stoichiometry in the fit.

[1] = system: PDH-E1alpha (pSer300) in HEK293T cells; test: Cellular immunofluorescence assay, PDH-E1alpha (pSer300); format: cell-based; conditions: Homo sapiens, HEK-293T, 5 hours incubation, read-out: IC50 (cell data)
Description: Cellular Assay for Determination of Compound Activities
Compound activities were determined in a cellular immunofluorescence assay. Human HEK293T cells were seeded into black 384-well plates with clear bottom and grown overnight.
Next day, test compounds were added to the wells and the plates incubated for 5 hours. Following this, cells were fixed with formaldehyde, permeabilised and blocked. The primary antibody, Anti-PDH-E1alpha (pSer300), AP1064 (Merck Millipore) was added and incubated overnight in the plate wells. Next, cells were washed and the seconday antibody, Alexa Fluor 488, goat anti-rabbit ab (A-11008, Invitrogen) was added together with Hoechst 33258 (H3569, Invitrogen) and incubated for 1 hour in the plate wells. Finally, cells were washed and the plates were measured on the laser scanning cytometer acumen hci (TTpLabtech).
The raw data were normalized against a pharmacological inhibitor control and dose response curves were generated by plotting the percent effect values using the software package Genedata screener (Genedata).

Row | SMILES | pIC50 (PDHK2) | pKd (human PDHK2 (12-407)) | pIC50 [1]
1 | COc1ccc(-c2nnc(C3([C@H]4CCN(C(=O)[C@@](C)(O)C(F)(F)F)C[C@H]4C)CC3)o2)cc1 [Compound A31, (R)-3,3,3-Trifluoro-2-hydroxy-1-((3S,4S)-4-{1-[5-(4-methoxy-phenyl)-[1,3,4]oxadiazol-2-yl]-cyclopropyl}-3-methyl-piperidin-1-yl)-2-methyl-propan-1-one] | 6.74 | 8.44 | 7.77
2 | C[C@@H]1CN(C(=O)[C@@](C)(O)C(F)(F)F)CC[C@@H]1C1(c2nnc(-c3ccc(Cl)cc3)[nH]2)CC1 [Compound A34, (R)-1-((3S,4S)-4-{1-[5-(4-Chloro-phenyl)-4H-[1,2,4]triazol-3-yl]-cyclopropyl}-3-methyl-piperidin-1-yl)-3,3,3-trifluoro-2-hydroxy-2-methyl-propan-1-one] | 6.74 | 8.55 | 7.72
3 | COc1ccc(-c2nnc(C3([C@H]4CCN(C(=O)[C@@](C)(O)C(F)(F)F)C[C@H]4C)CC3)o2)cn1 [Compound A43, (R)-3,3,3-Trifluoro-2-hydroxy-1-((3S,4S)-4-{1-[5-(6-methoxy-pyridin-3-yl)-[1,3,4]oxadiazol-2-yl]-cyclopropyl}-3-methyl-piperidin-1-yl)-2-methyl-propan-1-one] | 7.00 | 8.42 | 7.80
4 | C[C@@](O)(C(=O)N1CCC(C2(c3nnc(-c4ccc(F)cc4)o3)CC2)CC1)C(F)(F)F [Compound A6, (R)-3,3,3-Trifluoro-1-{4-{1-[5-(4-fluoro-phenyl)-[1,3,4]oxadiazol-2-yl]-cyclopropyl}-piperidin-1-yl}-2-hydroxy-2-methyl-propan-1-one] | 6.30 | 6.57 | 5.70
5 | C[C@H]1CN(C(=O)[C@@](C)(O)C(F)(F)F)CC[C@H]1C1(c2nnc(-c3ccccc3)o2)CC1 (stereo in doubt) [Compound A15, (R)-3,3,3-Trifluoro-2-hydroxy-2-methyl-1-{(S)-3-methyl-4-[1-(5-phenyl-[1,3,4]oxadiazol-2-yl)-cyclopropyl]-piperidin-1-yl}-propan-1-one] | 4.96 | – | 5.14
6 | COc1ccc(-c2nnc(C3([C@H]4CCN(C(=O)[C@@](C)(O)C(F)(F)F)C[C@H]4C)CC3)[nH]2)cc1 [Compound A28, (R)-3,3,3-Trifluoro-2-hydroxy-1-((3S,4S)-4-{1-[5-(4-methoxy-phenyl)-4H-[1,2,4]triazol-3-yl]-cyclopropyl}-3-methyl-piperidin-1-yl)-2-methyl-propan-1-one] | 7.06 | 8.60 | 7.92
7 | COc1ccc(-c2nnc(C3([C@@H]4CCN(C(=O)[C@@](C)(O)C(F)(F)F)C[C@@H]4C)CC3)o2)cc1 [Compound A30, (R)-3,3,3-Trifluoro-2-hydroxy-1-((3R,4R)-4-{1-[5-(4-methoxy-phenyl)-[1,3,4]oxadiazol-2-yl]-cyclopropyl}-3-methyl-piperidin-1-yl)-2-methyl-propan-1-one] | 5.72 | – | –
8 | COc1ccc(-c2nnc(C3([C@@H]4CCN(C(=O)[C@@](C)(O)C(F)(F)F)C[C@@H]4C)CC3)[nH]2)cn1 [Compound A39, (R)-3,3,3-Trifluoro-2-hydroxy-1-((3R,4R)-4-{1-[5-(6-methoxy-pyridin-3-yl)-4H-[1,2,4]triazol-3-yl]-cyclopropyl}-3-methyl-piperidin-1-yl)-2-methyl-propan-1-one] | 5.22 | – | –
9 | C[C@@](O)(C(=O)N1CCC(C2(c3nnc(-c4ccc(F)cc4)[nH]3)CC2)CC1)C(F)(F)F [Compound A2, (R)-3,3,3-Trifluoro-1-{4-{1-[5-(4-fluorophenyl)-4H-[1,2,4]triazol-3-yl]-cyclopropyl}-piperidin-1-yl}-2-hydroxy-2-methyl-propan-1-one] | – | 6.74 | 5.70
10 | Cc1ccc(-c2nnc(C3([C@@H]4CCN(C(=O)[C@@](C)(O)C(F)(F)F)C[C@@H]4C)CC3)[nH]2)cc1 [Compound A21, (R)-3,3,3-Trifluoro-2-hydroxy-2-methyl-1-{(3R,4R)-3-methyl-4-[1-(5-p-tolyl-4H-[1,2,4]triazol-3-yl)-cyclopropyl]-piperidin-1-yl}-propan-1-one] | 5.31 | – | –
11 | C[C@H]1CN(C(=O)[C@@](C)(O)C(F)(F)F)CC[C@H]1C1(c2nnc(-c3ccc(Cl)cc3)o2)CC1 [Compound A36, (R)-1-((3R,4R)-4-{1-[5-(4-Chloro-phenyl)-[1,3,4]oxadiazol-2-yl]-cyclopropyl}-3-methyl-piperidin-1-yl)-3,3,3-trifluoro-2-hydroxy-2-methyl-propan-1-one] | 5.09 | – | –
12 | C[C@H]1CN(C(=O)[C@@](C)(O)C(F)(F)F)CC[C@H]1C1(c2nnc(-c3ccccc3)[nH]2)CC1 [Compound A13, (R)-3,3,3-Trifluoro-2-hydroxy-2-methyl-1-{(3R,4R)-3-methyl-4-[1-(5-phenyl-4H-[1,2,4]triazol-3-yl)-cyclopropyl]-piperidin-1-yl}-propan-1-one] | 5.18 | – | –
13 | COc1ccc(-c2nnc(C3([C@@H]4CCN(C(=O)[C@@](C)(O)C(F)(F)F)C[C@@H]4C)CC3)[nH]2)cc1 [Compound A27, (R)-3,3,3-Trifluoro-2-hydroxy-1-((3R,4R)-4-{1-[5-(4-methoxy-phenyl)-4H-[1,2,4]triazol-3-yl]-cyclopropyl}-3-methyl-piperidin-1-yl)-2-methyl-propan-1-one] | 4.89 | – | –
14 | C[C@H]1CN(C(=O)[C@@](C)(O)C(F)(F)F)CC[C@H]1C1(c2nnc(-c3ccc(F)cc3)[nH]2)CC1 [Compound A18, (R)-3,3,3-Trifluoro-1-((3R,4R)-4-{1-[5-(4-fluoro-phenyl)-4H-[1,2,4]triazol-3-yl]-cyclopropyl}-3-methyl-piperidin-1-yl)-2-hydroxy-2-methyl-propan-1-one] | 5.59 | – | –
15 | C[C@H]1CN(C(=O)[C@@](C)(O)C(F)(F)F)CC[C@H]1C1(c2nnc(-c3ccc(Cl)cc3)[nH]2)CC1 [Compound A33, (R)-1-((3R,4R)-4-{1-[5-(4-Chloro-phenyl)-4H-[1,2,4]triazol-3-yl]-cyclopropyl}-3-methyl-piperidin-1-yl)-3,3,3-trifluoro-2-hydroxy-2-methyl-propan-1-one] | 4.74 | – | –
16 | Cc1ccc(-c2nnc(C3([C@@H]4CCN(C(=O)[C@@](C)(O)C(F)(F)F)C[C@@H]4C)CC3)o2)cc1 [Compound A24, (R)-3,3,3-Trifluoro-2-hydroxy-2-methyl-1-{(3R,4R)-3-methyl-4-[1-(5-p-tolyl-[1,3,4]oxadiazol-2-yl)-cyclopropyl]-piperidin-1-yl}-propan-1-one] | 5.14 | – | –
